These results are taken from ChEMBL document CHEMBL1201862, “PubChem BioAssay data set” (2004).

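Interpolation was linear, between the two tested concentrations surrounding the appropriate level; five concentrations were tested over 48 hours in 96-well plates. GI50 is the concentration that inhibits growth by half.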 Active and inactive are the calls of the source. No stated cut-off is given here; in the data, active = GI50 up to about 1.1 µM and inactive = higher. Some results are limits rather than exact numbers.

Some test systems named below: NCI-H460; OVCAR-4; A549; SF-295; NCI/ADR-RES; BT-549; NCI-H23; COLO 205; ACHN; OVCAR-8; OVCAR-3; SK-OV-3; K562; UACC-62; CAKI-1; HCT-116; HOP-62; RXF 393; SR; HCT-15.
What all share (assay): growth of human tumour cells (NCI), 48 h

As to `O=C(O)C[S+]([O-])c1ccc2c3c(cccc13)C(=O)c1ccccc1-2` (stereo not given), the GI50 with NCI-H460, in the assay with OVCAR-4, with A549, in the assay on SF-295, with NCI/ADR-RES and with BT-549 was > 100 µM (inactive) each time. Moreover, the GI50 with NCI-H23, in the assay on COLO 205, in the assay with ACHN, in the assay on OVCAR-8, in the assay with OVCAR-3 and with SK-OV-3 was > 100 µM (inactive) in each case. Moreover, the GI50 with K562, in the assay on UACC-62, in the assay with CAKI-1, in the assay with HCT-116, with HOP-62 and with RXF 393 was > 100 µM (inactive) each time. Besides, the results for the GI50 with SR and in the assay with HCT-15 were > 100 µM (inactive) and greater than 100 µM, respectively.

On to `O=C(O)/C=C\C(=O)Nc1ccc2c(c1)-c1ccccc1C2`, for which the GI50 in the assay with NCI-H460 is > 100 µM (inactive); in the assay on OVCAR-4, > 100 µM (inactive); with A549, > 100 µM (inactive); with SF-295, > 100 µM (inactive); in the assay on NCI/ADR-RES, 56.1 µM (inactive); in the assay on BT-549, 39.8 µM (inactive). Also, the GI50 is 70.8 µM (inactive) with NCI-H23; > 100 µM (inactive) with COLO 205; > 100 µM (inactive) in the assay on ACHN; 77.4 µM (inactive) with OVCAR-8; 30.8 µM (inactive) in the assay with OVCAR-3; > 100 µM (inactive) in the assay with SK-OV-3. The GI50 in the assay on K562 was 64.9 µM (inactive); in the assay with UACC-62 it was > 100 µM (inactive); with CAKI-1, > 100 µM (inactive); with HCT-116, 99.3 µM (inactive); in the assay with HOP-62, 81.3 µM (inactive); in the assay with RXF 393 it was > 100 µM (inactive). The GI50 with SR is 44.9 µM (inactive); in the assay on HCT-15 it was 44.7 µM.

`NC(=O)C(C(N)=O)=C(O)/C(O)=C/C(=O)c1ccccc1`: the GI50 was > 100 µM (inactive) with NCI-H460; > 100 µM (inactive) in the assay on OVCAR-4; > 100 µM (inactive) in the assay on A549; > 100 µM (inactive) with SF-295; > 100 µM (inactive) with NCI/ADR-RES; 48.5 µM (inactive) with BT-549. For the same molecule, the GI50 was > 100 µM (inactive) in the assay with NCI-H23; > 100 µM (inactive) in the assay on COLO 205; > 100 µM (inactive) with ACHN; > 100 µM (inactive) in the assay with OVCAR-8; 51.4 µM (inactive) in the assay with OVCAR-3; > 100 µM (inactive) in the assay with SK-OV-3. The GI50 with K562 is 0.0652 µM (active); in the assay on UACC-62 it was > 100 µM (inactive); in the assay on CAKI-1, > 100 µM (inactive); in the assay on HCT-116, > 100 µM (inactive); with HOP-62, > 100 µM (inactive); in the assay on RXF 393, > 100 µM (inactive). The values for the GI50 in the assay with SR and with HCT-15 were 1.99 µM (inactive) and greater than 100 µM, respectively.

Turning to `O=C(O)C1CC(C2CCCCN2)CN2CCCCC12` (stereo not given), the GI50 with NCI-H460, with OVCAR-4, with A549, in the assay on SF-295, with NCI/ADR-RES and with BT-549 was > 100 µM (inactive) throughout. Further, the GI50 in the assay on NCI-H23, in the assay on COLO 205, in the assay on ACHN, with OVCAR-8, with OVCAR-3 and with SK-OV-3 was > 100 µM (inactive) each time. Besides, the GI50 in the assay on K562, with UACC-62, in the assay with CAKI-1, in the assay on HCT-116, with HOP-62 and in the assay on RXF 393 was > 100 µM (inactive) each time. The GI50 in the assay on SR was > 100 µM (inactive); with HCT-15, greater than 100 µM.

For `CC(C)OC(=O)Nc1c([N+](=O)[O-])cc(C(F)(F)F)cc1[N+](=O)[O-]`, the GI50 is > 100 µM (inactive) in the assay with NCI-H460; > 100 µM (inactive) in the assay on OVCAR-4; > 100 µM (inactive) in the assay with A549; 54.1 µM (inactive) in the assay on SF-295; > 100 µM (inactive) in the assay on NCI/ADR-RES; > 100 µM (inactive) in the assay on BT-549. Moreover, the GI50 is 69.5 µM (inactive) in the assay with NCI-H23; > 100 µM (inactive) with COLO 205; > 100 µM (inactive) with ACHN; 75.7 µM (inactive) in the assay on OVCAR-8; > 100 µM (inactive) in the assay with OVCAR-3; 40.3 µM (inactive) in the assay with SK-OV-3. Moreover, the GI50 in the assay with K562 was > 46.5 µM (inactive); with UACC-62, > 100 µM (inactive); with CAKI-1, > 100 µM (inactive); in the assay on HCT-116, > 100 µM (inactive); with HOP-62, 93.3 µM (inactive); in the assay with RXF 393, 20.1 µM (inactive). Further, the GI50 in the assay with SR is > 67.5 µM (inactive); in the assay on HCT-15, greater than 100 µM.

As to `COc1cc2cc(C(=O)N3CC(CCl)c4ccc(NCCN)cc43)[nH]c2c(OC)c1OC` (stereo not given), the GI50 in the assay on NCI-H460 was 0.0658 µM (active); in the assay on OVCAR-4 it was 0.263 µM (active); with A549, 0.208 µM (active); in the assay with SF-295, 0.197 µM (active); in the assay with NCI/ADR-RES it was 0.208 µM (active); with BT-549 it was 0.345 µM (active). For the same molecule, the GI50 in the assay on NCI-H23 is 0.0822 µM (active); in the assay with COLO 205, 0.222 µM (active); in the assay with ACHN, 0.08 µM (active); with OVCAR-8, 0.167 µM (active); in the assay with OVCAR-3, 0.236 µM (active); in the assay with SK-OV-3 it was 0.282 µM (active). Further, the GI50 was 0.11 µM (active) with K562; 0.111 µM (active) in the assay with UACC-62; 0.143 µM (active) in the assay with CAKI-1; 0.217 µM (active) in the assay on HCT-116; 0.166 µM (active) with HOP-62; 0.105 µM (active) in the assay with RXF 393. Further, the GI50 was 0.0279 µM (active) in the assay on SR and 0.377 µM in the assay on HCT-15.

Turning to `C=CC(C)(C)N[C@@H](C(=O)N1CCC[C@H]1c1nc(-c2nc(C(=O)OCC=C(C)C)c(C)o2)c(C)o1)C(C)C`, the GI50 with NCI-H460 was 24 µM (inactive); in the assay with OVCAR-4 it was 22.8 µM (inactive); in the assay on A549 it was 29.9 µM (inactive); with SF-295, 20.1 µM (inactive); with NCI/ADR-RES, 22.6 µM (inactive); in the assay on BT-549, 23.6 µM (inactive). Besides, the GI50 was 21.8 µM (inactive) with NCI-H23; 22.4 µM (inactive) in the assay with COLO 205; 29.4 µM (inactive) with ACHN; 23.4 µM (inactive) in the assay on OVCAR-8; 23.1 µM (inactive) with OVCAR-3; 27.1 µM (inactive) with SK-OV-3. In addition, the GI50 with K562 is 36.5 µM (inactive); in the assay on UACC-62 it was 18 µM (inactive); with CAKI-1, 35.5 µM (inactive); with HCT-116, 17.8 µM (inactive); in the assay with HOP-62, 21.6 µM (inactive); in the assay on RXF 393 it was 30.7 µM (inactive). The results for the GI50 in the assay on SR and with HCT-15 were 18.1 µM (inactive) and 22 µM, respectively.

`CC(=O)OC(C)c1cc2c(s1)C(=O)c1scc(C(C)OC(C)=O)c1C2=O` (stereo not given): the GI50 in the assay with NCI-H460 is 0.167 µM (active); in the assay with OVCAR-4, 0.298 µM (active); in the assay on A549, 0.363 µM (active); with SF-295, 0.164 µM (active); with NCI/ADR-RES, 0.255 µM (active); in the assay with BT-549, 0.218 µM (active). The GI50 in the assay on NCI-H23 was 0.157 µM (active); in the assay on COLO 205, 0.512 µM (active); in the assay with ACHN it was 0.238 µM (active); in the assay on OVCAR-8 it was 0.24 µM (active); in the assay with OVCAR-3, 0.307 µM (active); in the assay on SK-OV-3 it was 2.16 µM (inactive). For the same molecule, the GI50 in the assay on K562 was 0.355 µM (active); in the assay with UACC-62, 0.212 µM (active); in the assay with CAKI-1, 1.56 µM (inactive); in the assay with HCT-116, 0.285 µM (active); with HOP-62, 0.191 µM (active); in the assay on RXF 393, 0.301 µM (active). Moreover, the GI50 was 0.21 µM (active) in the assay with SR and 0.195 µM in the assay on HCT-15.

For `CN(C)CCNc1ccc(CO)c2oc3ccc(O)cc3c(=O)c12`, the GI50 with NCI-H460 was 4.24 µM (inactive); in the assay with OVCAR-4 it was 13.8 µM (inactive); in the assay on A549 it was 14.6 µM (inactive); with SF-295, 14.2 µM (inactive); in the assay on NCI/ADR-RES it was 21.3 µM (inactive); with BT-549, 14.6 µM (inactive). In addition, the GI50 was 11.5 µM (inactive) in the assay on NCI-H23; 8.97 µM (inactive) with COLO 205; 7.45 µM (inactive) in the assay on ACHN; 7.14 µM (inactive) in the assay with OVCAR-8; 16.5 µM (inactive) with OVCAR-3; 14.4 µM (inactive) in the assay on SK-OV-3. Also, the GI50 is 10.2 µM (inactive) in the assay on K562; 11.5 µM (inactive) with UACC-62; 21.6 µM (inactive) in the assay with CAKI-1; 6.4 µM (inactive) in the assay with HCT-116; 10.3 µM (inactive) with HOP-62; 12.6 µM (inactive) with RXF 393. Also, the figures for the GI50 in the assay with SR and with HCT-15 were 1.14 µM (inactive) and 14.4 µM, respectively.

`O=C1Nc2ccc(S(=O)(=O)O)cc2/C1=N/Nc1ccccc1[N+](=O)[O-]`: the GI50 in the assay with NCI-H460, with OVCAR-4, with A549, in the assay with SF-295, with NCI/ADR-RES and in the assay on BT-549 was > 100 µM (inactive) in each case. Also, the GI50 in the assay with NCI-H23 is > 100 µM (inactive); in the assay with COLO 205 it was > 100 µM (inactive); with ACHN, > 100 µM (inactive); with OVCAR-8, > 100 µM (inactive); with OVCAR-3, > 100 µM (inactive); in the assay on SK-OV-3 it was 97.9 µM (inactive). The GI50 with K562 is 5.64 µM (inactive); in the assay on UACC-62, 35 µM (inactive); in the assay with CAKI-1, > 100 µM (inactive); with HCT-116, > 100 µM (inactive); in the assay on HOP-62, > 100 µM (inactive); with RXF 393, > 100 µM (inactive). Also, the GI50 in the assay with SR is > 100 µM (inactive); with HCT-15 it was 84.1 µM.
